In patent US20260022089A1, “QUINONE-DERIVED COMPOUNDS AND USE THEREOF AGAINST LEISHMANIA SPP” (Universidad de la Laguna, priority 2022, published 2026):
Converted amounts (≈) assume the structure as drawn. Where two headings read alike, the source gives them in different places.

Assays:
[1] = Toxicity against mouse cells, alamarBlue assay, 24 hours; assay type: cell-based; settings: murine macrophages, read-out: Macrophage Toxicity CC50
Method: To assess toxicity, all compounds were evaluated against mouse cells for 24 hours by means of the alamarBlue assay. […] The higher the value of CC50, the greater the amount of compound required to damage mouse cells, therefore, the lower the toxicity of the compound.

[2] = tested on: Leishmania amazonensis promastigotes; test: Leishmanicidal activity, alamarBlue fluorescence, 72 hours incubation with promastigotes; assay type: cell-based; settings: for SI (CC50/IC50): ratio of macrophage CC50 to L. amazonensis IC50
[3] = Leishmania amazonensis, promastigotes, 72 hours, alamarBlue, read-out: L. amazonensis IC50

| SMILES | CC50 at 24 h [1] | IC50 [2, 3] | SI (CC50/IC50) [2] | leishmanicidal activity ([2]; statement in words) | IC50 [2] | IC50 ([2]; Leishmania amazonensis, read-out: IC50) |
| --- | --- | --- | --- | --- | --- | --- |
| CC1=CC(=O)C=C(C2CCCCC2)C1=O [SG-007, 2-cyclohexyl-6-methylcyclohexa-2,5-diene-1,4-dione] | 0.52 ± 0.09 µg/mL (≈ 2.55 µM) | 0.07 ± 0.02 µg/mL (≈ 0.343 µM) | 7.40 | – | – | – |
| CCC(C)(C)C1=CC(=O)C(C)=CC1=O [SG-010, 2-methyl-5-(tert-pentyl)cyclohexa-2,5-diene-1,4-dione] | 4.51 ± 0.47 µg/mL (≈ 23.5 µM) | 0.12 ± 0.02 µg/mL (≈ 0.624 µM) | 37.50 | shows leishmanicidal activity | – | – |
| CC1=CC(=O)C(C23CC4CC(CC(C4)C2)C3)=CC1=O [SG-012, 2-((3r,5r,7r)-adamantane-1-yl)-5-methylcyclohexa-2,5-diene-1,4-dione] | 0.78 ± 0.02 µg/mL (≈ 3.04 µM) | 0.08 ± 0.01 µg/mL (≈ 0.312 µM) | 9.75 | – | – | – |
| CCCCCCCCCCCCCCCCOP(=O)([O-])OCC[N+](C)(C)C [Miltefosine, miltefosine, reference compound] | 29.4 ± 1.25 µg/mL (≈ 72.2 µM) | – | 11.14 | – | 2.64 µg/mL (≈ 6.48 µM) | 2.64 µg/mL (≈ 6.48 µM) |
| CCC(C)(CC)C1=CC(=O)C(C)=CC1=O [SG-011, 2-methyl-5-(3-methylpentan-3-yl)cyclohexa-2,5-diene-1,4-dione] | 12.3 ± 0.77 µg/mL (≈ 59.5 µM) | 0.89 ± 0.06 µg/mL (≈ 4.31 µM) | 13.80 | – | – | – |
| CC1=CC(=O)C(C2CCCCC2)=CC1=O [SG-008, 2-cyclohexyl-5-methylcyclohexa-2,5-diene-1,4-dione] | 2.55 ± 0.2 µg/mL (≈ 12.5 µM) | 0.06 ± 0.01 µg/mL (≈ 0.294 µM) | 42.50 | – | – | – |
| CC1=CC(=O)C(C2CCCCCC2)=CC1=O [SG-013, 2-cycloheptyl-5-methylcyclohexa-2,5-diene-1,4-dione] | 0.92 ± 0.05 µg/mL (≈ 4.21 µM) | 0.09 µg/mL (≈ 0.412 µM) | 7.10 | – | – | – |
| CC1=CC(=O)C(C2CCCC2)=CC1=O [SG-005, 2-cyclopentyl-5-methylcyclohexa-2,5-diene-1,4-dione] | 0.72 ± 0.01 µg/mL (≈ 3.78 µM) | 0.13 ± 0.03 µg/mL (≈ 0.683 µM) | 5.50 | – | – | – |
| CC1=CC(=O)C=C(C2CCCCCC2)C1=O [SG-014, 2-cycloheptyl-6-methylcyclohexa-2,5-diene-1,4-dione] | 8.95 ± 1.75 µg/mL (≈ 41 µM) | 0.7 ± 0.02 µg/mL (≈ 3.21 µM) | 24.20 | – | – | – |
| CC1=CC(=O)C=C(C2CCCC2)C1=O [SG-003, 2-cyclopentyl-6-methylcyclohexa-2,5-diene-1,4-dione] | 4.53 ± 0.9 µg/mL (≈ 23.8 µM) | 0.34 ± 0.01 µg/mL (≈ 1.79 µM) | 13.30 | – | – | – |
